Source: patent US20250248955A1, “PHENYL ACRYLIC ACID COMPOUND, AND PREPARATION METHOD AND APPLICATION THEREOF” (LONGIVITRON (SUZHOU) BIOTECHNOLOGY CO., LTD, priority 2022, published 2025)

Target: ACAT1 (Homo sapiens (Human), UniProt P24752)
Assay: ACAT1 small molecule inhibitor screening (enzyme activity, IC50)
Type: biochemical
Conditions: summary of Table 1; unit given as mol/L
Method: ACAT1 can catalyze two molecules of acetyl coenzyme A to reversibly form acetoacetyl coenzyme A. Its activity was measured through the reaction between ACAT1-catalyzed substrate acetoacetyl-coenzyme A and coenzyme A, from which the product acetyl-coenzyme A is produced. Since acetoacetyl-coenzyme A is specifically absorbed in a specific spectrum, the impact on the enzyme activity of ACAT1 can be reflected through the detection of an increase or decrease of absorption in a specific spectrum.
ACAT1 recombinant proteins were expressed and purified by Escherichia coli, and the concentration of ACAT1 recombinant proteins obtained was 1 mg/mL. The buffers adopted for ACAT1 small molecule inhibitor screening were 50 mM Tris-HCl (pH 8.1), 20 mM MgCl2, and 40 mM KCl. In 200 μL of enzyme catalytic system, 1 μL of ACAT1 recombinant proteins, the substrate acetyl-coenzyme A whose final concentration was changed from 25 μM to 100 μM through a CPM probe, and small molecule inhibitors at different concentrations were added, respectively. The measurement was carried out through a microplate reader (Biotek Synergy H1) and using excitation light at 355 nm and emission light at 460 nm, and the IC50 of the inhibitors was calculated through software Prism 7.0.

Chain of ACAT1 (P24752 34-427): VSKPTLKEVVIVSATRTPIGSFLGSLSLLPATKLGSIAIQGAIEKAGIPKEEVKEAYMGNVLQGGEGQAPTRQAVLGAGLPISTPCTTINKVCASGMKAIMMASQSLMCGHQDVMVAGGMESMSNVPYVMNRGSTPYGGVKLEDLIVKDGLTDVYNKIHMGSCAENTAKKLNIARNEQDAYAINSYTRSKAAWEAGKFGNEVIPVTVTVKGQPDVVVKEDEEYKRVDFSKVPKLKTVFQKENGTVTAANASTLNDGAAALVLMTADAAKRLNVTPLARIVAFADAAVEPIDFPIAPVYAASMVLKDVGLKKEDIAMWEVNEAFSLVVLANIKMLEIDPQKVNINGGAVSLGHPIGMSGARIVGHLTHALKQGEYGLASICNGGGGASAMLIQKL

SMILES | IC50 [µM]
COc1ccc(CCOc2ccc(NC(=O)/C=C/c3ccc(O)c(O)c3)cc2)cc1 [Compound M5] | < 100
Cc1ccc(CCOc2ccc(NC(=O)/C=C/c3ccc(O)c(O)c3)cc2)cc1 [Compound M7] | < 100
COc1ccc(CCOc2ccc(NC(=O)/C=C/c3ccc(O)c(O)c3)cc2)cc1OC [Compound M9] | < 100

Results, then the molecule that gave them:

IC50 [µM] | SMILES
< 100 | COCOc1ccc(/C=C/C(=O)Nc2ccc(OCCc3cc(OC)c(OC)c(OC)c3)cc2)cc1OCOC [Compound M17]
< 100 | COCOc1ccc(/C=C/C(=O)Nc2ccc(OCCc3ccc(OC)cc3)cc2)cc1OCOC [Compound M12]
< 100 | COc1cc(CCOc2ccc(NC(=O)/C=C/c3ccc(O)c(O)c3)cc2)cc(OC)c1OC [Compound M10]
